In ChEMBL document CHEMBL1201862, “PubChem BioAssay data set” (2004):
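Five compound concentrations were applied to cells in 96-well plates for 48 hours; endpoints were derived by simple linear interpolation of the resulting dose-response curve. Abbreviation: GI50, concentration required for 50% inhibition of growth.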 Calls of active or inactive are those of the source. Cut-off read from the data, not from the text of the source: active = GI50 up to about 1.1 µM and inactive = higher.

Legend:
Assay in all cases: growth of human tumour cells (NCI), 48 h
[1] = system: DU-145
[2] = system: SF-539
[3] = system: SNB-19
[4] = system: RXF 393
[5] = system: HT-29
[6] = system: T47D
[7] = system: PC-3
[8] = system: CAKI-1
[9] = system: OVCAR-4
[10] = system: A498
[11] = system: U-251
[12] = system: OVCAR-5
[13] = system: NCI/ADR-RES
[14] = system: SN12C
[15] = system: SK-MEL-2
[16] = system: HCT-116
[17] = system: NCI-H460
[18] = system: HCT-15
[19] = system: IGROV-1
[20] = system: UACC-257
[21] = system: SNB-75
[22] = system: OVCAR-8
[23] = system: EKVX
[24] = system: LOX IMVI
[25] = system: UACC-62
[26] = system: Hs-578T
[27] = system: OVCAR-3
[28] = system: NCI-H23
[29] = system: SK-OV-3
[30] = system: CCRF-CEM
[31] = system: MDA-MB-231
[32] = system: SF-268
[33] = system: HCC 2998
[34] = system: MDA-MB-435
[35] = system: 786-0
[36] = system: HOP-62
[37] = system: M14
[38] = system: Malme-3M
[39] = system: KM12
[40] = system: HOP-92
[41] = system: NCI-H522
[42] = system: SK-MEL-5
[43] = system: NCI-H226
[44] = system: BT-549
[45] = system: ACHN
[46] = system: A549
[47] = system: SW-620
[48] = system: SK-MEL-28
[49] = system: COLO 205
[50] = system: MCF7
[51] = system: MDA-N
[52] = system: TK-10
[53] = system: HL-60
[54] = system: SF-295
[55] = system: UO-31

## OC(CCN1CCN(CCOC(c2ccccc2)c2ccccc2)CC1)c1ccc(Br)cc1 (stereo not given)
[1]
  GI50: 16 µM (inactive)
[2]
  GI50: 12.5 µM (inactive)
[3]
  GI50: 15.8 µM (inactive)
[4]
  GI50: 9.38 µM (inactive)
[5]
  GI50: 4.27 µM (inactive)
[6]
  GI50: 10.4 µM (inactive)
[7]
  GI50: 10.9 µM (inactive)
[8]
  GI50: 12.2 µM (inactive)
[9]
  GI50: 12.6 µM (inactive)
[10]
  GI50: 3.72 µM (inactive)
[11]
  GI50: 11.9 µM (inactive)
[12]
  GI50: 14.9 µM (inactive)
[13]
  GI50: 8.36 µM (inactive)
[14]
  GI50: 11.8 µM (inactive)
[15]
  GI50: 12.3 µM (inactive)
[16]
  GI50: 11.2 µM (inactive)
[17]
  GI50: 8.11 µM (inactive)
[18]
  GI50: 6.43 µM
[19]
  GI50: 10.9 µM (inactive)
[20]
  GI50: 3.47 µM (inactive)
[21]
  GI50: 12.8 µM (inactive)
[22]
  GI50: 6.25 µM (inactive)
[23]
  GI50: 11 µM (inactive)
[24]
  GI50: 10 µM (inactive)
[25]
  GI50: 10.6 µM (inactive)
[26]
  GI50: 16 µM (inactive)
[27]
  GI50: 12.6 µM (inactive)
[28]
  GI50: 14 µM (inactive)
[29]
  GI50: 13.1 µM (inactive)
[30]
  GI50: 12.7 µM (inactive)
[31]
  GI50: 11.7 µM (inactive)
[32]
  GI50: 14.8 µM (inactive)
[33]
  GI50: 1.73 µM (inactive)
[34]
  GI50: 11 µM (inactive)
[35]
  GI50: 10.7 µM (inactive)
[36]
  GI50: 15.1 µM (inactive)
[37]
  GI50: 3.27 µM (inactive)
[38]
  GI50: 11.7 µM (inactive)
[39]
  GI50: 11.4 µM (inactive)
[40]
  GI50: 10.7 µM (inactive)
[41]
  GI50: 14.3 µM (inactive)
[42]
  GI50: 3.53 µM (inactive)
[43]
  GI50: 15 µM (inactive)
[44]
  GI50: 13.3 µM (inactive)
[45]
  GI50: 10.8 µM (inactive)
[46]
  GI50: 14.9 µM (inactive)
[47]
  GI50: 16.8 µM (inactive)
[48]
  GI50: 7.69 µM (inactive)
[49]
  GI50: 1.71 µM (inactive)
[50]
  GI50: 13.3 µM (inactive)
[51]
  GI50: 10.9 µM (inactive)
[52]
  GI50: 13.7 µM (inactive)
[53]
  GI50: 10.1 µM (inactive)
[54]
  GI50: 15.6 µM (inactive)
[55]
  GI50: 2.38 µM (inactive)

## COC1=Nc2ccccc2S(=O)(=O)C=C1
[1]
  GI50: 16.8 µM (inactive)
[2]
  GI50: 16.7 µM (inactive)
[3]
  GI50: 24.7 µM (inactive)
[4]
  GI50: 2.69 µM (inactive)
[5]
  GI50: 9.89 µM (inactive)
[6]
  GI50: 3.66 µM (inactive)
[7]
  GI50: 15 µM (inactive)
[8]
  GI50: 13.3 µM (inactive)
[9]
  GI50: 10.1 µM (inactive)
[10]
  GI50: 16.8 µM (inactive)
[11]
  GI50: 11.4 µM (inactive)
[12]
  GI50: 16.9 µM (inactive)
[13]
  GI50: 13.1 µM (inactive)
[14]
  GI50: 14.4 µM (inactive)
[15]
  GI50: 16.6 µM (inactive)
[16]
  GI50: 1.74 µM (inactive)
[17]
  GI50: 19 µM (inactive)
[18]
  GI50: 3.42 µM
[19]
  GI50: 13.7 µM (inactive)
[20]
  GI50: 7.69 µM (inactive)
[21]
  GI50: 2.31 µM (inactive)
[22]
  GI50: 4.35 µM (inactive)
[23]
  GI50: 7.69 µM (inactive)
[24]
  GI50: 2.84 µM (inactive)
[25]
  GI50: 17.9 µM (inactive)
[26]
  GI50: 18.7 µM (inactive)
[27]
  GI50: 2.78 µM (inactive)
[28]
  GI50: 6.35 µM (inactive)
[29]
  GI50: 45.7 µM (inactive)
[30]
  GI50: 0.342 µM (active)
[31]
  GI50: 13.2 µM (inactive)
[32]
  GI50: 20.8 µM (inactive)
[33]
  GI50: 21.4 µM (inactive)
[34]
  GI50: 11.4 µM (inactive)
[35]
  GI50: 3.29 µM (inactive)
[36]
  GI50: 43.3 µM (inactive)
[37]
  GI50: 7.64 µM (inactive)
[38]
  GI50: 2.5 µM (inactive)
[39]
  GI50: 14.8 µM (inactive)
[40]
  GI50: 4.81 µM (inactive)
[41]
  GI50: 1.21 µM (inactive)
[42]
  GI50: 11.4 µM (inactive)
[43]
  GI50: > 87.3 µM (inactive)
[44]
  GI50: 6.75 µM (inactive)
[45]
  GI50: 3.07 µM (inactive)
[46]
  GI50: 18.2 µM (inactive)
[47]
  GI50: 1.73 µM (inactive)
[48]
  GI50: 7.01 µM (inactive)
[49]
  GI50: 1.79 µM (inactive)
[50]
  GI50: 2.61 µM (inactive)
[51]
  GI50: 7.4 µM (inactive)
[52]
  GI50: 2.75 µM (inactive)
[53]
  GI50: 0.195 µM (active)
[54]
  GI50: > 45.4 µM (inactive)
[55]
  GI50: 5.46 µM (inactive)
